# Calls of active or inactive are those of the source. The rule behind the calls is not given here.
# Key:
# Tribolium castaneum [1] = test: Insecticidal activity against adult Tribolium castaneum (red flour beetle) assessed as mortality at 0.0375 ppm exposed for 5 days on wheat; format: functional
# Sitophilus zeamais [2] = test: Insecticidal activity against adult Sitophilus zeamais assessed as mortality at 0.0375 ppm exposed for 5 days on wheat; format: functional
# Cryptolestes ferrugineus [3] = test: Insecticidal activity against adult Cryptolestes ferrugineus (rusty grain beetle) assessed as mortality at 0.05 ppm exposed for 14 days on wheat; format: functional; conditions: 336 h
# Sitophilus zeamais [4] = test: Reduction of progeny production in adult Sitophilus zeamais at 0.0875 to 0.0375 to ppm exposed on wheat; format: functional, organism-based
# Sitophilus zeamais [5] = test: Insecticidal activity against adult Sitophilus zeamais assessed as mortality at 0.0375 ppm exposed for 7 days on wheat; format: functional
# Cryptolestes ferrugineus [6] = test: Insecticidal activity against adult Cryptolestes ferrugineus (rusty grain beetle) assessed as mortality at 0.05 ppm exposed for 7 days on wheat; format: functional; conditions: 168 h
# Tribolium castaneum [7] = test: Insecticidal activity against adult Tribolium castaneum (red flour beetle) assessed as mortality at 0.05 ppm exposed for 14 days on wheat; format: functional
# Cryptolestes ferrugineus [8] = test: Insecticidal activity against adult Cryptolestes ferrugineus (rusty grain beetle) assessed as mortality at 0.05 ppm exposed for 5 days on wheat; format: functional; conditions: 120 h
# Sitophilus zeamais [9] = test: Insecticidal activity against adult Sitophilus zeamais assessed as mortality at 0.0625 ppm exposed for 5 days on wheat; format: functional
# Tribolium castaneum [10] = test: Insecticidal activity against adult Tribolium castaneum (red flour beetle) assessed as mortality at 0.075 ppm exposed for 7 days on wheat; format: functional
# Cryptolestes ferrugineus [11] = test: Insecticidal activity against adult Cryptolestes ferrugineus (rusty grain beetle) assessed as mortality at 0.0875 ppm exposed for 14 days on wheat; format: functional; conditions: 336 h
# Cryptolestes ferrugineus [12] = test: Insecticidal activity against adult Cryptolestes ferrugineus (rusty grain beetle) assessed as mortality at 0.0375 ppm exposed for 14 days on wheat; format: functional; conditions: 336 h
# Tribolium castaneum [13] = test: Insecticidal activity against adult Tribolium castaneum (red flour beetle) assessed as mortality at 0.0375 ppm exposed for 14 days on wheat; format: functional
# Cryptolestes ferrugineus [14] = test: Insecticidal activity against adult Cryptolestes ferrugineus (rusty grain beetle) assessed as mortality at 0.0875 ppm exposed for 7 days on wheat; format: functional; conditions: 168 h
# Cryptolestes ferrugineus [15] = test: Reduction of progeny production in adult Cryptolestes ferrugineus (rusty grain beetle) at 0.0875 to 0.0375 to ppm exposed on wheat; format: functional, organism-based
# Tribolium castaneum [16] = test: Insecticidal activity against adult Tribolium castaneum (red flour beetle) assessed as mortality at 0.0625 ppm exposed for 5 days on wheat; format: functional
# Sitophilus zeamais [17] = test: Insecticidal activity against adult Sitophilus zeamais assessed as mortality at 0.0625 ppm exposed for 7 days on wheat; format: functional
# Sitophilus zeamais [18] = test: Insecticidal activity against adult Sitophilus zeamais assessed as mortality at 0.075 ppm exposed for 14 days on wheat; format: functional
# Sitophilus zeamais [19] = test: Insecticidal activity against adult Sitophilus zeamais assessed as mortality at 0.0875 ppm exposed for 14 days on wheat; format: functional
# Tribolium castaneum [20] = test: Insecticidal activity against adult Tribolium castaneum (red flour beetle) assessed as mortality at 0.0625 ppm exposed for 14 days on wheat; format: functional
# Sitophilus zeamais [21] = test: Insecticidal activity against adult Sitophilus zeamais assessed as mortality at 0.0875 ppm exposed for 7 days on wheat; format: functional
# Sitophilus zeamais [22] = test: Insecticidal activity against adult Sitophilus zeamais assessed as mortality at 0.0625 ppm exposed for 14 days on wheat; format: functional
# Cryptolestes ferrugineus [23] = test: Insecticidal activity against adult Cryptolestes ferrugineus (rusty grain beetle) assessed as mortality at 0.0625 ppm exposed for 5 days on wheat; format: functional; conditions: 120 h
# Cryptolestes ferrugineus [24] = test: Insecticidal activity against adult Cryptolestes ferrugineus (rusty grain beetle) assessed as mortality at 0.075 ppm exposed for 7 days on wheat; format: functional; conditions: 168 h
# Tribolium castaneum [25] = test: Insecticidal activity against adult Tribolium castaneum (red flour beetle) assessed as mortality at 0.0375 ppm exposed for 7 days on wheat; format: functional
# Sitophilus zeamais [26] = test: Insecticidal activity against adult Sitophilus zeamais assessed as mortality at 0.05 ppm exposed for 7 days on wheat; format: functional
# Tribolium castaneum [27] = test: Insecticidal activity against adult Tribolium castaneum (red flour beetle) assessed as mortality at 0.075 ppm exposed for 5 days on wheat; format: functional
# Cryptolestes ferrugineus [28] = test: Insecticidal activity against adult Cryptolestes ferrugineus (rusty grain beetle) assessed as mortality at 0.0625 ppm exposed for 14 days on wheat; format: functional; conditions: 336 h
# Sitophilus zeamais [29] = test: Insecticidal activity against adult Sitophilus zeamais assessed as mortality at 0.0875 ppm exposed for 5 days on wheat; format: functional
# Sitophilus zeamais [30] = test: Insecticidal activity against adult Sitophilus zeamais assessed as mortality at 0.0375 ppm exposed for 14 days on wheat; format: functional
# Cryptolestes ferrugineus [31] = test: Insecticidal activity against adult Cryptolestes ferrugineus (rusty grain beetle) assessed as mortality at 0.0625 ppm exposed for 7 days on wheat; format: functional; conditions: 168 h
# Tribolium castaneum [32] = test: Insecticidal activity against adult Tribolium castaneum (red flour beetle) assessed as mortality at 0.0875 ppm exposed for 7 days on wheat; format: functional
# Sitophilus zeamais [33] = test: Insecticidal activity against adult Sitophilus zeamais assessed as mortality at 0.05 ppm exposed for 14 days on wheat; format: functional
# Cryptolestes ferrugineus [34] = test: Insecticidal activity against adult Cryptolestes ferrugineus (rusty grain beetle) assessed as mortality at 0.0875 ppm exposed for 5 days on wheat; format: functional; conditions: 120 h
# Tribolium castaneum [35] = test: Insecticidal activity against adult Tribolium castaneum (red flour beetle) assessed as mortality at 0.0625 ppm exposed for 7 days on wheat; format: functional
# Cryptolestes ferrugineus [36] = test: Insecticidal activity against adult Cryptolestes ferrugineus (rusty grain beetle) assessed as mortality at 0.0375 ppm exposed for 7 days on wheat; format: functional; conditions: 168 h
# Sitophilus zeamais [37] = test: Insecticidal activity against adult Sitophilus zeamais assessed as mortality at 0.075 ppm exposed for 7 days on wheat; format: functional
# Cryptolestes ferrugineus [38] = test: Insecticidal activity against adult Cryptolestes ferrugineus (rusty grain beetle) assessed as mortality at 0.0375 ppm exposed for 5 days on wheat; format: functional; conditions: 120 h
# Sitophilus zeamais [39] = test: Insecticidal activity against adult Sitophilus zeamais assessed as mortality at 0.075 ppm exposed for 5 days on wheat; format: functional
# Tribolium castaneum [40] = test: Insecticidal activity against adult Tribolium castaneum (red flour beetle) assessed as mortality at 0.0875 ppm exposed for 14 days on wheat; format: functional
# Sitophilus zeamais [41] = test: Insecticidal activity against adult Sitophilus zeamais assessed as mortality at 0.05 ppm exposed for 5 days on wheat; format: functional
# Tribolium castaneum [42] = test: Insecticidal activity against adult Tribolium castaneum (red flour beetle) assessed as mortality at 0.05 ppm exposed for 7 days on wheat; format: functional
# Tribolium castaneum [43] = test: Reduction of progeny production in adult Tribolium castaneum (red flour beetle) at 0.0875 to 0.0375 to ppm exposed on wheat; format: functional, organism-based
# Cryptolestes ferrugineus [44] = test: Insecticidal activity against adult Cryptolestes ferrugineus (rusty grain beetle) assessed as mortality at 0.075 ppm exposed for 14 days on wheat; format: functional; conditions: 336 h
# Tribolium castaneum [45] = test: Insecticidal activity against adult Tribolium castaneum (red flour beetle) assessed as mortality at 0.075 ppm exposed for 14 days on wheat; format: functional
# Tribolium castaneum [46] = test: Insecticidal activity against adult Tribolium castaneum (red flour beetle) assessed as mortality at 0.0875 ppm exposed for 5 days on wheat; format: functional
# Cryptolestes ferrugineus [47] = test: Insecticidal activity against adult Cryptolestes ferrugineus (rusty grain beetle) assessed as mortality at 0.075 ppm exposed for 5 days on wheat; format: functional; conditions: 120 h
# Tribolium castaneum [48] = test: Insecticidal activity against adult Tribolium castaneum (red flour beetle) assessed as mortality at 0.05 ppm exposed for 5 days on wheat; format: functional
compound,measurement,setting,value
CC(=O)O[C@H]1C[C@](C)(O)[C@]23OC(C)(C)[C@H]([C@H](OCC(C)C)[C@@H](OCc4ccccc4)[C@]2(COCC(C)C)[C@H]1OC(C)=O)[C@H]3O [BITTERBARKOMYCIN],Activity,Tribolium castaneum [1],19.6%
same,Activity,Sitophilus zeamais [2],39.8%
same,mortality at 0.05 ppm,Cryptolestes ferrugineus [3],86.7%
same,Activity,Sitophilus zeamais [4],Active
same,Activity,Sitophilus zeamais [5],52.4%
same,mortality at 0.05 ppm,Cryptolestes ferrugineus [6],70.7%
same,Activity,Tribolium castaneum [7],86%
same,mortality at 0.05 ppm,Cryptolestes ferrugineus [8],47.6%
same,Activity,Sitophilus zeamais [9],68.4%
same,Activity,Tribolium castaneum [10],63.1%
same,mortality at 0.0875 ppm,Cryptolestes ferrugineus [11],100%
same,mortality at 0.0375 ppm,Cryptolestes ferrugineus [12],83.8%
same,Activity,Tribolium castaneum [13],66%
same,mortality at 0.0875 ppm,Cryptolestes ferrugineus [14],100%
same,Activity,Cryptolestes ferrugineus [15],Active
same,Activity,Tribolium castaneum [16],23.3%
same,Activity,Sitophilus zeamais [17],72.2%
same,Activity,Sitophilus zeamais [18],92.9%
same,Activity,Sitophilus zeamais [19],98.2%
same,Activity,Tribolium castaneum [20],95.8%
same,Activity,Sitophilus zeamais [21],90.4%
same,Activity,Sitophilus zeamais [22],83.1%
same,mortality at 0.0625 ppm,Cryptolestes ferrugineus [23],53.1%
same,mortality at 0.075 ppm,Cryptolestes ferrugineus [24],98.2%
same,Activity,Tribolium castaneum [25],48.2%
same,Activity,Sitophilus zeamais [26],65.1%
same,Activity,Tribolium castaneum [27],33.6%
same,mortality at 0.0625 ppm,Cryptolestes ferrugineus [28],90.3%
same,Activity,Sitophilus zeamais [29],85.3%
same,Activity,Sitophilus zeamais [30],64.4%
same,mortality at 0.0625 ppm,Cryptolestes ferrugineus [31],76.1%
same,Activity,Tribolium castaneum [32],68%
same,Activity,Sitophilus zeamais [33],73.8%
same,mortality at 0.0875 ppm,Cryptolestes ferrugineus [34],92.9%
same,Activity,Tribolium castaneum [35],60.4%
same,mortality at 0.0375 ppm,Cryptolestes ferrugineus [36],64%
same,Activity,Sitophilus zeamais [37],86%
same,mortality at 0.0375 ppm,Cryptolestes ferrugineus [38],44.7%
same,Activity,Sitophilus zeamais [39],80.2%
same,Activity,Tribolium castaneum [40],100%
same,Activity,Sitophilus zeamais [41],59.1%
same,Activity,Tribolium castaneum [42],56.2%
same,Activity,Tribolium castaneum [43],Active
same,mortality at 0.075 ppm,Cryptolestes ferrugineus [44],100%
same,Activity,Tribolium castaneum [45],99.6%
same,Activity,Tribolium castaneum [46],50%
same,mortality at 0.075 ppm,Cryptolestes ferrugineus [47],88.4%
same,Activity,Tribolium castaneum [48],21.8%

# From ChEMBL document CHEMBL3044996, “Diatomaceous earths enhance the insecticidal effect of bitterbarkomycin against stored-grain insects” (2009)
